Laboratory results published in US10894784B2, “Heteroarylbenzimidazole compounds” (BAYER PHARMA AKTIENGESELLSCHAFT, priority 2015, dated 2021).

Target: TBK1 (Homo sapiens (Human), UniProt Q9UHD2)
Experiment: TBK1 low ATP kinase assay (in vitro assay 1)
Assay type: biochemical
Settings: in vitro assay 1, read-out: TBK1 low ATP kinase assay IC50

Chain of TBK1 (Q9UHD2 whole entry): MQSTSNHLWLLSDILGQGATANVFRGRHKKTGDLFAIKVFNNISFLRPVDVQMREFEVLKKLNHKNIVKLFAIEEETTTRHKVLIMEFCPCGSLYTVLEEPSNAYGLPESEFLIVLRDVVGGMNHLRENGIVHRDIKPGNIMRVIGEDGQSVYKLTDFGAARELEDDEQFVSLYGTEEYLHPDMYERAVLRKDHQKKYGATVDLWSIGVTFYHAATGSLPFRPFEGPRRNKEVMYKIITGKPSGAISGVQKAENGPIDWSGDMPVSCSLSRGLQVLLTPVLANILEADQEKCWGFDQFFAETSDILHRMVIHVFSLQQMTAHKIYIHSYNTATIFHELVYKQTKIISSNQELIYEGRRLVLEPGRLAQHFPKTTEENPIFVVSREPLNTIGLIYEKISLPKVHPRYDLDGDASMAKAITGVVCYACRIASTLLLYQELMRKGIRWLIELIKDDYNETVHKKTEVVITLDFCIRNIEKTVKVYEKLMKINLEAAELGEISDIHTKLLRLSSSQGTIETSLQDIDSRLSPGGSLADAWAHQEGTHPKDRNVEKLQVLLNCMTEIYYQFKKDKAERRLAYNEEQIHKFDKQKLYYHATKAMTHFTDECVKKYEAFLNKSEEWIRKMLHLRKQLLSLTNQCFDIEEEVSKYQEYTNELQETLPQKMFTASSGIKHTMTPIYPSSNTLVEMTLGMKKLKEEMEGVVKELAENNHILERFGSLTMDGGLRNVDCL

| Compound | IC50 [nM] |
| --- | --- |
| Cc1cnn(C)c1-c1ccc2nc(Nc3cc(C(C)N4CCN(C(=O)CC(F)(F)F)CC4)ccn3)[nH]c2c1 (single isomer, unassigned) [Example 73.01, 1-{4-[(1R or 1S)-1-(2-{[6-(1,4-dimethyl-1H-pyrazol-5-yl)-1H-benzimidazol-2-yl]amino}pyridin-4-yl)ethyl]piperazin-1-yl}-3,3,3-trifluoropropan-1-one] | 67 |
| Cc1nc(Cl)cc(-c2ccc3nc(Nc4cc(CN5CCN(C(=O)OC(C)(C)C)CC5)ccn4)[nH]c3c2)n1 [Example 186.01, tert-butyl 4-[(2-{[6-(6-chloro-2-methylpyrimidin-4-yl)-1H-benzimidazol-2-yl]amino}pyridin-4-yl)methyl]piperazine-1-carboxylate] | 59.1 |
| Cc1cc(-c2ccc3nc(Nc4cc(C(C)N5CCN(C(=O)CC(F)(F)F)CC5)ccn4)[nH]c3c2)n(C)n1 (single isomer, unassigned) [Example 89.02, 1-{4-[(1R or 1S)-1-(2-{[6-(1,3-dimethyl-1H-pyrazol-5-yl)-1H-benzimidazol-2-yl]amino}pyridin-4-yl)ethyl]piperazin-1-yl}-3,3,3-trifluoropropan-1-one] | 450 |
| Cn1cc(-c2ccc3nc(Nc4cc(CN5CCN(C(=O)C6CCC6)CC5)ccn4)[nH]c3c2)cn1 [Example 37.04, cyclobutyl{4-[(2-{[6-(1-methyl-1H-pyrazol-4-yl)-1H-benzimidazol-2-yl]amino}pyridin-4-yl)methyl]piperazin-1-yl}methanone] | 73.9 |
| Cc1noc(-c2ccc3nc(Nc4cc(CN5CCN(C(=O)CC6CC6)C[C@H]5C)ccn4)[nH]c3c2)n1 [Example 16.03.03, 2-cyclopropyl-1-{(3R)-3-methyl-4-[(2-{[6-(3-methyl-1,2,4-oxadiazol-5-yl)-1H-benzimidazol-2-yl]amino}pyridin-4-yl)methyl]piperazin-1-yl}ethanone] | 67 |
| COc1c(-c2ccc3nc(Nc4cc(C(C)N5CCN(C(=O)CC(F)(F)F)CC5)ccn4)[nH]c3c2)ncnc1N1CC(F)(F)C1 (single isomer, unassigned) [Example 113.02, 1-(4-{(1R or 1S)-1-[2-({6-[6-(3,3-difluoroazetidin-1-yl)-5-methoxypyrimidin-4-yl]-1H-benzimidazol-2-yl}amino)pyridin-4-yl]ethyl}piperazin-1-yl)-3,3,3-trifluoropropan-1-one] | 1.6 |
| CCc1cc(-c2ccc3nc(Nc4cc(CN5CCN(C(=O)CC(F)(F)F)CC5)ccn4)[nH]c3c2)ncn1 [Example 91.02, 1-{4-[(2-{[6-(6-ethylpyrimidin-4-yl)-1H-benzimidazol-2-yl]amino}pyridin-4-yl)methyl]piperazin-1-yl}-3,3,3-trifluoropropan-1-one] | 12 |
| CC(C)(C)Cc1nc(-c2ccc3nc(Nc4cc(CN5CCN(c6ccccc6Cl)CC5)ccn4)[nH]c3c2)no1 [Example 22.02, N-(4-{[4-(2-chlorophenyl)piperazin-1-yl]methyl}pyridin-2-yl)-6-[5-(2,2-dimethylpropyl)-1,2,4-oxadiazol-3-yl]-1H-benzimidazol-2-amine] | 779 |
| Cc1nccc(-c2ccc3nc(Nc4cc(CN5CCN(C(=O)C6CCC6)CC5)ccn4)[nH]c3c2)n1 [Example 24.01.02, cyclobutyl{4-[(2-{[6-(2-methylpyrimidin-4-yl)-1H-benzimidazol-2-yl]amino}pyridin-4-yl)methyl]piperazin-1-yl}methanone] | 39.9 |
| O=C(CC(F)(F)F)N1CCN(Cc2ccnc(Nc3nc4ccc(-c5cnn(CC6CC6)c5)cc4[nH]3)c2)CC1 [Example 39.01.02, 1-(4-{[2-({6-[1-(cyclopropylmethyl)-1H-pyrazol-4-yl]-1H-benzimidazol-2-yl}amino)pyridin-4-yl]methyl}piperazin-1-yl)-3,3,3-trifluoropropan-1-one] | 5.89 |
| CC(C)(C)OC(=O)N1CCN(Cc2ccnc(Nc3nc4ccc(-c5c(F)cncc5Cl)cc4[nH]3)c2)CC1 [Example 132.01, tert-butyl 4-[(2-{[6-(3-chloro-5-fluoropyridin-4-yl)-1H-benzimidazol-2-yl]amino}pyridin-4-yl)methyl]piperazine-1-carboxylate] | 180 |
| COc1ncccc1-c1ccc2nc(Nc3cc(CN4CCN(C(=O)CC(F)(F)F)CC4)ccn3)[nH]c2c1 [Example 15.01, 3,3,3-trifluoro-1-{4-[(2-{[6-(2-methoxypyridin-3-yl)-1H-benzimidazol-2-yl]amino}pyridin-4-yl)methyl]piperazin-1-yl}propan-1-one] | 339 |
| O=C(C1CC1)N1CCN(Cc2ccnc(Nc3nc4ccc(-c5ncc[nH]5)cc4[nH]3)c2)CC1 [Example 43.01, cyclopropyl{4-[(2-{[6-(1H-imidazol-2-yl)-1H-benzimidazol-2-yl]amino}pyridin-4-yl)methyl]piperazin-1-yl}methanone] | 262 |

Results, then the molecule that gave them:

| IC50 [nM] | Compound |
| --- | --- |
| 10.9 | CC(c1ccnc(Nc2nc3ccc(-c4cc(OCC(F)(F)F)ncn4)cc3[nH]2)c1)N1CCN(C(=O)C2(C(F)(F)F)CC2)CC1 (single isomer, unassigned) [Example 119.04, (4-{(1R or 1S)-1-[2-({6-[6-(2,2,2-trifluoroethoxy)pyrimidin-4-yl]-1H-benzimidazol-2-yl}amino)pyridin-4-yl]ethyl}piperazin-1-yl)[1-(trifluoromethyl)cyclopropyl]methanone] |
| 2.9 | O=C(C1CC1)N1CCN(Cc2ccnc(Nc3nc4ccc(-c5cc(OCC6CC6)ncn5)cc4[nH]3)c2)CC1 [Example 80.03, cyclopropyl(4-{[2-({6-[6-(cyclopropylmethoxy)pyrimidin-4-yl]-1H-benzimidazol-2-yl}amino)pyridin-4-yl]methyl}piperazin-1-yl)methanone] |
| 16.1 | Cc1nccc(-c2ccc3nc(Nc4cc(C(C)N5CCN(C(=O)C6CCC6)CC5)ccn4)[nH]c3c2)n1 (racemic) [Example 24.04.02, (rac)-cyclobutyl{4-[1-(2-{[6-(2-methylpyrimidin-4-yl)-1H-benzimidazol-2-yl]amino}pyridin-4-yl)ethyl]piperazin-1-yl}methanone] |
| 15 | Cc1cc(-c2ccc3nc(Nc4cc(C(C)N5CCN(C(=O)C6CC6)CC5)ccn4)[nH]c3c2F)ncn1 (single isomer, unassigned) [Example 172.03, cyclopropyl{4-[(1R or 1S)-1-(2-{[7-fluoro-6-(6-methylpyrimidin-4-yl)-1H-benzimidazol-2-yl]amino}pyridin-4-yl)ethyl]piperazin-1-yl}methanone] |
| 32 | Cc1cc(-c2ccc3nc(Nc4cc(CN5CCN(C(=O)C6CC6)CC5)ccn4)[nH]c3c2)c(F)cn1 [Example 131.03, cyclopropyl{4-[(2-{[6-(5-fluoro-2-methylpyridin-4-yl)-1H-benzimidazol-2-yl]amino}pyridin-4-yl)methyl]piperazin-1-yl}methanone] |
| 5.62 | COc1cncnc1-c1ccc2nc(Nc3cc(C(C)N4CCN(C(=O)C5CC5)CC4)ccn3)[nH]c2c1 (single isomer, unassigned) [Example 35.03.03.A, cyclopropyl{4-[(1R or 1S)-1-(2-{[6-(5-methoxypyrimidin-4-yl)-1H-benzimidazol-2-yl]amino}pyridin-4-yl)ethyl]piperazin-1-yl}methanone] |
| 1 | COc1c(-c2ccc3nc(Nc4cc(C(C)N5CCN(C(=O)C6CC6)CC5)ccn4)[nH]c3c2)ncnc1N1CCC1 (single isomer, unassigned) [Example 111.02, (4-{(1R or 1S)-1-[2-({6-[6-(azetidin-1-yl)-5-methoxypyrimidin-4-yl]-1H-benzimidazol-2-yl}amino)pyridin-4-yl]ethyl}piperazin-1-yl)(cyclopropyl)methanone] |
| 13.8 | Cc1nccc(-c2ccc3nc(Nc4cc(C(C)N5CCN(C(=O)CC6CC6)CC5)ccn4)[nH]c3c2)n1 (single isomer, unassigned) [Example 24.05.03.B, 2-cyclopropyl-1-{4-[(1S or 1R)-1-(2-{[6-(2-methylpyrimidin-4-yl)-1H-benzimidazol-2-yl]amino}pyridin-4-yl)ethyl]piperazin-1-yl}ethanone] |
| 2.85 | CC(c1ccnc(Nc2nc3ccc(-c4cnn(CC5CCC5)c4)c(F)c3[nH]2)c1)N1CCN(C(=O)C2CC2)CC1 (single isomer, unassigned) [Example 171.03, (4-{(1R or 1S)-1-[2-({6-[1-(cyclobutylmethyl)-1H-pyrazol-4-yl]-7-fluoro-1H-benzimidazol-2-yl}amino)pyridin-4-yl]ethyl}piperazin-1-yl)(cyclopropyl)methanone] |
| 4.8 | CCN(C)c1cc(-c2ccc3nc(Nc4cc(CN5CCN(C(=O)C6CC6)CC5)ccn4)[nH]c3c2)ncn1 [Example 148.03, cyclopropyl[4-({2-[(6-{6-[ethyl(methyl)amino]pyrimidin-4-yl}-1H-benzimidazol-2-yl)amino]pyridin-4-yl}methyl)piperazin-1-yl]methanone] |
| 2.42 | CC(c1ccnc(Nc2nc3ccc(-c4ccncn4)cc3[nH]2)c1)N1CCN(C(=O)C2CC2)CC1 (racemic) [Example 23.04.02, (rac)-cyclopropyl{4-[1-(2-{[6-(pyrimidin-4-yl)-1H-benzimidazol-2-yl]amino}pyridin-4-yl)ethyl]piperazin-1-yl}methanone] |
| 2 | CC(c1ccnc(Nc2nc3ccc(-c4cc(N(C)C)ncn4)cc3[nH]2)c1)N1CCN(C(=O)C2CC2)CC1 (single isomer, unassigned) [Example 100.03, cyclopropyl(4-{(1R or 1S)-1-[2-({6-[6-(dimethylamino)pyrimidin-4-yl]-1H-benzimidazol-2-yl}amino)pyridin-4-yl]ethyl}piperazin-1-yl)methanone] |
| 3.26 | CC(c1ccnc(Nc2nc3ccc(-c4cc(C(F)F)ncn4)cc3[nH]2)c1)N1CCN(C(=O)C2CC2)CC1 (single isomer, unassigned) [Example 174.03, cyclopropyl(4-{(1R or 1S)-1-[2-({6-[6-(difluoromethyl)pyrimidin-4-yl]-1H-benzimidazol-2-yl}amino)pyridin-4-yl]ethyl}piperazin-1-yl)methanone] |
| 12.4 | CC(c1ccnc(Nc2nc3ccc(-c4ccncn4)cc3[nH]2)c1)N1CCN(C(=O)C2CC2)CC1 (single isomer, unassigned) [Example 23.05.01.B, cyclopropyl{4-[(1S or 1R)-1-(2-{[6-(pyrimidin-4-yl)-1H-benzimidazol-2-yl]amino}pyridin-4-yl)ethyl]piperazin-1-yl}methanone] |
